Patent EP4603105A1, “PHARMACEUTICAL COMPOSITION CONTAINING CYCLIC COMPOUND HAVING SELECTIVE KRAS INHIBITORY EFFECT AGAINST HRAS AND NRAS” (CHUGAI SEIYAKU KABUSHIKI KAISHA, priority 2022, dated 2024)

How the values were obtained:
[1] = target: HRAS wild-type protein (Homo sapiens, UniProt P01112); test: Binding to HRAS by surface plasmon resonance (SPR), KD and KD ratio to KRAS; conditions: ratio of KD value for HRAS wild-type protein to KD value for KRAS (SPR)
How it was run: (§1)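 Affinity is measured by surface plasmon resonance at 30°C against captured, GDP-loaded RAS carrying a biotinylated Avi tag. Compounds are titrated by single-cycle kinetics, and KD comes from a 1:1 fit.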

[2] = system: human lung cancer strain NCI-H441; format: cell-based
How it was run: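 Readout: […] after the ATP-based reagent. Compound: serial dilutions in dimethyl sulfoxide.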

[3] = target: GDP-bound NRAS wild-type protein (Homo sapiens, UniProt P01111); test: Binding to NRAS by surface plasmon resonance (SPR), KD and KD ratio to KRAS; conditions: ratio of KD value for GDP-bound NRAS wild-type protein to KD value for KRAS (SPR)
GDP-bound NRAS wild-type protein, sequence (P01111 whole entry): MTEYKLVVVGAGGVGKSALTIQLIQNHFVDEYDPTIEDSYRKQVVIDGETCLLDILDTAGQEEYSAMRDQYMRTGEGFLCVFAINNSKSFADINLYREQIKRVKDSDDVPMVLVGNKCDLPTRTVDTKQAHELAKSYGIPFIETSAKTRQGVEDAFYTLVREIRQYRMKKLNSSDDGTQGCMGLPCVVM
How it was run: as §1

HRAS wild-type protein, sequence (P01112 whole entry): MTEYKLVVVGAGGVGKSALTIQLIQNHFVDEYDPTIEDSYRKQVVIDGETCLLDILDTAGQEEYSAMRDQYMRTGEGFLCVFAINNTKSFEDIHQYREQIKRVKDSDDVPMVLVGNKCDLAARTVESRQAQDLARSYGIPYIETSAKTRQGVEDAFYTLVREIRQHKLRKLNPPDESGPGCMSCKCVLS

Compound	HRAS /KRAS [1]	IC50 [2] [nM]	NRAS /KRAS [3]
CCO[C@@H]1C[C@H]2C(=O)NC3(CC(C)(C)C3)C(=O)N(C)[C@@H](C3CCCC3)C(=O)N(C)[C@H](CC)CC(=O)N(C)[C@@H](CC3CC3)C(=O)N[C@@H]([C@@H](C)CC)C(=O)N(C)CC(=O)N(C)[C@H]3C/C=C\CCN(C3=O)[C@@H](Cc3ccc(C(F)(F)F)cc3)C(=O)N(C)CC(=O)N[C@@H](CCc3cc(F)c(C(F)(F)F)c(F)c3)C(=O)N2C1 [PP1629]	B (a compound having 3 or more and less than 10 is denoted as B)	20.7	B (a compound having 3 or more and less than 10 is denoted as B)
CCO[C@@H]1C[C@H]2C(=O)NC3(CCC3)C(=O)N(C)[C@@H](C(CC)CC)C(=O)N(C)[C@H](CC)CC(=O)N(C)[C@@H](CC3CC3)C(=O)N[C@@H]([C@@H](C)CC)C(=O)N(C)CC(=O)N(C)[C@H]3C/C=C\CCN(C3=O)[C@@H](Cc3ccc(C(F)(F)F)cc3)C(=O)N(C)CC(=O)N[C@@H](CCc3cc(F)c(C(F)(F)F)c(F)c3)C(=O)N2C1 [PP1630]	A (a compound having 10 or more and less than 20 is denoted as A)	144	A (a compound having 10 or more and less than 20 is denoted as A)
CCO[C@@H]1C[C@H]2C(=O)NC3(CCC3)C(=O)N(C)[C@@H](C3CCCC3)C(=O)N(C)[C@H](CC)CC(=O)N(C)[C@@H](CC3CC3)C(=O)N[C@@H]([C@@H](C)CC)C(=O)N(C)CC(=O)N(C)[C@H]3C/C=C\CCN(C3=O)C(Cc3ccc(C(F)(F)F)cc3)C(=O)N(C)CC(=O)N[C@@H](CCc3cc(F)c(C(F)(F)F)c(F)c3)C(=O)N2C1 (stereo partly drawn) [PP1631]	B (a compound having 3 or more and less than 10 is denoted as B)	17.6	A (a compound having 10 or more and less than 20 is denoted as A)
CCO[C@@H]1C[C@H]2C(=O)NC3(CC(F)(F)C3)C(=O)N(C)[C@@H](C(CC)CC)C(=O)N(C)[C@H](CC)CC(=O)N(C)[C@@H](CC3CC3)C(=O)N[C@@H]([C@@H](C)CC)C(=O)N(C)CC(=O)N(C)[C@H]3C/C=C\CCN(C3=O)[C@@H](Cc3ccc(C(F)(F)F)cc3)C(=O)N(C)CC(=O)N[C@@H](CCc3cc(F)c(C(F)(F)F)c(F)c3)C(=O)N2C1 [PP1632]	A (a compound having 10 or more and less than 20 is denoted as A)	116	A (a compound having 10 or more and less than 20 is denoted as A)
CCO[C@@H]1C[C@H]2C(=O)NC3(CC(F)(F)C3)C(=O)N(C)[C@@H](C3CCCC3)C(=O)N(C)[C@H](CC)CC(=O)N(C)[C@@H](CC3CC3)C(=O)N[C@@H]([C@@H](C)CC)C(=O)N(C)CC(=O)N(C)[C@H]3C/C=C\CCN(C3=O)[C@@H](Cc3ccc(C(F)(F)F)cc3)C(=O)N(C)CC(=O)N[C@@H](CCc3cc(F)c(C(F)(F)F)c(F)c3)C(=O)N2C1 [PP1633]	B (a compound having 3 or more and less than 10 is denoted as B)	15.1	A (a compound having 10 or more and less than 20 is denoted as A)
CCO[C@@H]1C[C@H]2C(=O)NC3(CC(C)(C)C3)C(=O)N(C)[C@@H](C(CC)CC)C(=O)N(C)[C@H](C3CCC3)CC(=O)N(C)[C@@H](CC3CC3)C(=O)N[C@@H]([C@@H](C)CC)C(=O)N(C)CC(=O)N(C)[C@H]3C/C=C\CCN(C3=O)[C@@H](Cc3ccc(C(F)(F)F)cc3)C(=O)N(C)CC(=O)N[C@@H](CCc3cc(F)c(C(F)(F)F)c(F)c3)C(=O)N2C1 [PP1634]	A (a compound having 10 or more and less than 20 is denoted as A)	144	A (a compound having 10 or more and less than 20 is denoted as A)
CCO[C@@H]1C[C@H]2C(=O)NC3(CC(C)(C)C3)C(=O)N(C)[C@@H](C3CCCC3)C(=O)N(C)[C@H](C3CCC3)CC(=O)N(C)[C@@H](CC3CC3)C(=O)N[C@@H]([C@@H](C)CC)C(=O)N(C)CC(=O)N(C)[C@H]3C/C=C\CCN(C3=O)[C@@H](Cc3ccc(C(F)(F)F)cc3)C(=O)N(C)CC(=O)N[C@@H](CCc3cc(F)c(C(F)(F)F)c(F)c3)C(=O)N2C1 [PP1635]	A (a compound having 10 or more and less than 20 is denoted as A)	36.3	B (a compound having 3 or more and less than 10 is denoted as B)
CCO[C@@H]1C[C@H]2C(=O)NC3(CCC3)C(=O)N(C)[C@@H](C3CCCC3)C(=O)N(C)[C@H](C3CCC3)CC(=O)N(C)[C@@H](CC3CC3)C(=O)N[C@@H]([C@@H](C)CC)C(=O)N(C)CC(=O)N(C)[C@H]3C/C=C\CCN(C3=O)[C@@H](Cc3ccc(C(F)(F)F)cc3)C(=O)N(C)CC(=O)N[C@@H](CCc3cc(F)c(C(F)(F)F)c(F)c3)C(=O)N2C1 [PP1637]	A (a compound having 10 or more and less than 20 is denoted as A)	32.5	A (a compound having 10 or more and less than 20 is denoted as A)
CCO[C@@H]1C[C@H]2C(=O)NC3(CC(F)(F)C3)C(=O)N(C)[C@@H](C3CCCC3)C(=O)N(C)[C@H](C3CCC3)CC(=O)N(C)[C@@H](CC3CC3)C(=O)N[C@@H]([C@@H](C)CC)C(=O)N(C)CC(=O)N(C)[C@H]3C/C=C\CCN(C3=O)[C@@H](Cc3ccc(C(F)(F)F)cc3)C(=O)N(C)CC(=O)N[C@@H](CCc3cc(F)c(C(F)(F)F)c(F)c3)C(=O)N2C1 [PP1639]	A (a compound having 10 or more and less than 20 is denoted as A)	44.8	A (a compound having 10 or more and less than 20 is denoted as A)
CCO[C@@H]1C[C@H]2C(=O)NC3(CC(C)(C)C3)C(=O)N(C)[C@@H](C3CCCC3)C(=O)N(C)[C@H](C(=O)N(C)C)CC(=O)N(C)[C@@H](C)C(=O)N[C@@H]([C@@H](C)CC)C(=O)N(C)CC(=O)N(C)[C@H]3C/C=C\CCN(C3=O)[C@@H](Cc3ccc(C(F)(F)F)cc3)C(=O)N(C)CC(=O)N[C@@H](CCc3cc(F)c(C(F)(F)F)c(F)c3)C(=O)N2C1 [PP1641]	A (a compound having 10 or more and less than 20 is denoted as A)	4.6	A (a compound having 10 or more and less than 20 is denoted as A)
CCO[C@@H]1C[C@H]2C(=O)NC3(CC(C)(C)C3)C(=O)N(C)[C@@H](C3CCCC3)C(=O)N(C)[C@H](C(=O)N(C)CC)CC(=O)N(C)[C@@H](CC(F)F)C(=O)N[C@@H]([C@@H](C)CC)C(=O)N(C)CC(=O)N(C)[C@H]3C/C=C\CCN(C3=O)[C@@H](Cc3ccc(C(F)(F)F)cc3)C(=O)N(C)CC(=O)N[C@@H](CCc3cc(F)c(C(F)(F)F)c(F)c3)C(=O)N2C1 [PP1643]	A (a compound having 10 or more and less than 20 is denoted as A)	1.6	A (a compound having 10 or more and less than 20 is denoted as A)
CCO[C@@H]1C[C@H]2C(=O)NC3(CC(C)(C)C3)C(=O)N(C)[C@@H](C3CCCC3)C(=O)N(C)[C@H](C(=O)N(C)C)CC(=O)N(C)[C@@H](CC(F)(F)F)C(=O)N[C@@H]([C@@H](C)CC)C(=O)N(C)CC(=O)N(C)[C@H]3C/C=C\CCN(C3=O)[C@@H](Cc3ccc(C(F)(F)F)cc3)C(=O)N(C)CC(=O)N[C@@H](CCc3cc(F)c(C(F)(F)F)c(F)c3)C(=O)N2C1 [PP1644]	A (a compound having 10 or more and less than 20 is denoted as A)	2.7	A (a compound having 10 or more and less than 20 is denoted as A)
CCC[C@H]1C(=O)N[C@@H]([C@@H](C)CC)C(=O)N(C)CC(=O)N(C)[C@H]2C/C=C\CCN(C2=O)[C@@H](Cc2ccc(C(F)(F)F)cc2)C(=O)N(C)CC(=O)N[C@@H](CCc2cc(F)c(C(F)(F)F)c(F)c2)C(=O)N2C[C@H](OCC)C[C@H]2C(=O)NC2(CC(C)(C)C2)C(=O)N(C)[C@@H](C2CCCC2)C(=O)N(C)[C@H](C(=O)N(C)C)CC(=O)N1C [PP1645]	A (a compound having 10 or more and less than 20 is denoted as A)	1.8	A (a compound having 10 or more and less than 20 is denoted as A)
CCC[C@H]1C(=O)N[C@@H]([C@@H](C)CC)C(=O)N(C)CC(=O)N(C)[C@H]2C/C=C\CCN(C2=O)[C@@H](Cc2ccc(C(F)(F)F)cc2)C(=O)N(C)CC(=O)N[C@@H](CCc2cc(F)c(C(F)(F)F)c(F)c2)C(=O)N2C[C@H](OCC)C[C@H]2C(=O)NC2(CC(C)(C)C2)C(=O)N(C)[C@@H](C2CCCC2)C(=O)N(C)[C@H](C(=O)N(C)CC)CC(=O)N1C [PP1646]	A (a compound having 10 or more and less than 20 is denoted as A)	2.8	A (a compound having 10 or more and less than 20 is denoted as A)
CCO[C@@H]1C[C@H]2C(=O)NC3(CC(C)(C)C3)C(=O)N(C)[C@@H](C3CCCC3)C(=O)N(C)[C@H](C(=O)N(C)CC)CC(=O)N(C)[C@@H](CC3CC3)C(=O)N[C@@H]([C@@H](C)CC)C(=O)N(C)CC(=O)N(C)[C@H]3C/C=C\CCN(C3=O)[C@@H](Cc3ccc(C(F)(F)F)cc3)C(=O)N(C)CC(=O)N[C@@H](CCc3cc(F)c(C(F)(F)F)c(F)c3)C(=O)N2C1 [PP1648]	A (a compound having 10 or more and less than 20 is denoted as A)	2.1	A (a compound having 10 or more and less than 20 is denoted as A)
CCCC[C@H]1C(=O)N[C@@H]([C@@H](C)CC)C(=O)N(C)CC(=O)N(C)[C@H]2C/C=C\CCN(C2=O)[C@@H](Cc2ccc(C(F)(F)F)cc2)C(=O)N(C)CC(=O)N[C@@H](CCc2cc(F)c(C(F)(F)F)c(F)c2)C(=O)N2C[C@H](OCC)C[C@H]2C(=O)NC2(CC(C)(C)C2)C(=O)N(C)[C@@H](C2CCCC2)C(=O)N(C)[C@H](C(=O)N(C)C)CC(=O)N1C [PP1649]	B (a compound having 3 or more and less than 10 is denoted as B)	2.2	A (a compound having 10 or more and less than 20 is denoted as A)
